# Source: patent US20210403435A1, “HERBICIDAL COMPOUNDS” (SYNGENTA CROP PROTECTION AG, priority 2018, published 2021)
# Read-outs that look alike come from different tables or passages of the source.
# Key:
# Test in all cases: Post-emergence efficacy, glasshouse, evaluated after 13 days
# Type in all cases: in vivo
# Lolium perenne (LOLPE) = conditions: for pest or weed control at 500 g/ha: Lolium perenne, 312 h, read-out: Control of weed species LOLPE (100=total damage to plant; 0=no damage to plant)
# Summary of the method: (§1)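 Plants grown 14 days in pots of standard soil in a glasshouse (24/16 °C day/night, 14 h light, 65% humidity), then sprayed post-emergence with compound formulated in acetone and IF50 and diluted in 0.25% or 1% Empicol ESC70 + 1% ammonium sulphate. Damage scored after 13 days, 0–100 (100 = total damage).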
# Setaria faberi (SETFA) = conditions: for pest or weed control at 500 g/ha: Setaria faberi, 312 h, read-out: Control of weed species SETFA (100=total damage to plant; 0=no damage to plant)
# Summary of the method: as §1
# [1] = test system: Chenopodium album (CHEAL); conditions: for pest or weed control at 500 g/ha: Chenopodium album, 312 h, read-out: Control of weed species CHEAL (100=total damage to plant; 0=no damage to plant)
# Summary of the method: as §1
# [2] = test system: Euphorbia heterophylla (EPHHL); conditions: for pest or weed control at 500 g/ha: Euphorbia heterophylla, 312 h, read-out: Control of weed species EPHHL (100=total damage to plant; 0=no damage to plant)
# Summary of the method: as §1
# [3] = test system: Echinochloa crus-galli (ECHCG); conditions: for pest or weed control at 500 g/ha: Echinochloa crus-galli, 312 h, read-out: Control of weed species ECHCG (100=total damage to plant; 0=no damage to plant)
# Summary of the method: as §1
# [4] = test system: Ipomoea hederacea (IPOHE); conditions: for pest or weed control at 500 g/ha: Ipomoea hederacea, 312 h, read-out: Control of weed species IPOHE (100=total damage to plant; 0=no damage to plant)
# Summary of the method: as §1
# Eleusine indica (ELEIN) = conditions: for pest or weed control at 500 g/ha: Eleusine indica, 312 h, read-out: Control of weed species ELEIN (100=total damage to plant; 0=no damage to plant)
# Summary of the method: as §1
# [5] = test system: Amaranthus palmeri (AMAPA); conditions: for pest or weed control at 500 g/ha: Amaranthus palmeri, 312 h, read-out: Control of weed species AMAPA (100=total damage to plant; 0=no damage to plant)
# Summary of the method: as §1
# [6] = test system: Digitaria sanguinalis (DIGSA); conditions: for pest or weed control at 500 g/ha: Digitaria sanguinalis, 312 h, read-out: Control of weed species DIGSA (100=total damage to plant; 0=no damage to plant)
# Summary of the method: as §1
# [7] = post-emergence application, 500 g/Ha, evaluated after 13 days
SMILES,pest or weed control at 500 g/ha (Lolium perenne (LOLPE); [7]) [%],pest or weed control at 500 g/ha (Setaria faberi (SETFA); [7]) [%],"pest or weed control at 500 g/ha [1, 7] [%]","pest or weed control at 500 g/ha [2, 7] [%]","pest or weed control at 500 g/ha [3, 7] [%]","pest or weed control at 500 g/ha [4, 7] [%]",pest or weed control at 500 g/ha (Eleusine indica (ELEIN); [7]) [%],"pest or weed control at 500 g/ha [5, 7] [%]","pest or weed control at 500 g/ha [6, 7] [%]",other results
O=C(O)CC[n+]1ccc(C(=O)NCC2CC2)cn1 [Compound A65],50,100,90,100,50,20,90,90,100,
O=C(O)CC[n+]1ccc(C(=O)NC2CSC2)cn1 [Compound A69],40,100,60,70,100,40,30,90,100,
CCNC(=O)c1cc[n+](C(C)(C)CC(=O)O)nc1 [Compound A71],30,30,70,20,30,60,30,100,60,
CN(NC(=O)c1cc[n+](CCC(=O)O)nc1)C(=O)OC(C)(C)C.O=C([O-])C(F)(F)F [Compound A72],,,,,,,,,,"Control of weed species LOLPE (100=total damage to plant; 0=no damage to plant) (Lolium perenne (LOLPE); [7]): 20; Control of weed species SETFA (100=total damage to plant; 0=no damage to plant) (Setaria faberi (SETFA); [7]): 20; Control of weed species CHEAL (100=total damage to plant; 0=no damage to plant) [1, 7]: 20; Control of weed species EPHHL (100=total damage to plant; 0=no damage to plant) [2, 7]: 20; Control of weed species ECHCG (100=total damage to plant; 0=no damage to plant) [3, 7]: 20; Control of weed species IPOHE (100=total damage to plant; 0=no damage to plant) [4, 7]: 20; Control of weed species ELEIN (100=total damage to plant; 0=no damage to plant) (Eleusine indica (ELEIN); [7]): 30; Control of weed species AMAPA (100=total damage to plant; 0=no damage to plant) [5, 7]: 100; Control of weed species DIGSA (100=total damage to plant; 0=no damage to plant) [6, 7]: 40"
CCNC(=O)c1cc[n+](CCNS(=O)(=O)C(F)(F)F)nc1 [Compound A73],60,60,90,90,80,80,90,100,90,
CCNC(=O)c1cc[n+](CCCC(=O)O)nc1 [Compound A74],80,70,90,60,60,40,80,100,80,
CCNC(=O)c1cc[n+](CCCS(=O)(=O)[O-])nc1 [Compound A76],70,30,70,100,30,30,60,40,70,
CCNC(=O)c1cc[n+](CCOS(=O)(=O)[O-])nc1 [Compound A80],70,80,100,90,90,70,90,100,90,
CCNC(=O)c1cc[n+](CCNS(=O)(=O)[O-])nc1 [Compound A81],90,100,100,100,100,90,100,100,90,
CCNC(=O)c1cc[n+](CCCOS(=O)(=O)[O-])nc1 [Compound A83],,,,,,,,,,"Control of weed species LOLPE (100=total damage to plant; 0=no damage to plant) (Lolium perenne (LOLPE); [7]): 80; Control of weed species SETFA (100=total damage to plant; 0=no damage to plant) (Setaria faberi (SETFA); [7]): 60; Control of weed species CHEAL (100=total damage to plant; 0=no damage to plant) [1, 7]: 90; Control of weed species EPHHL (100=total damage to plant; 0=no damage to plant) [2, 7]: 90; Control of weed species ECHCG (100=total damage to plant; 0=no damage to plant) [3, 7]: 90; Control of weed species IPOHE (100=total damage to plant; 0=no damage to plant) [4, 7]: 80; Control of weed species ELEIN (100=total damage to plant; 0=no damage to plant) (Eleusine indica (ELEIN); [7]): 90; Control of weed species AMAPA (100=total damage to plant; 0=no damage to plant) [5, 7]: 90; Control of weed species DIGSA (100=total damage to plant; 0=no damage to plant) [6, 7]: 90"
"O=C(Nc1ccccc1O)c1cc[n+](CCS(=O)(=O)[O-])nc1 [Compound A84, 2-[4-[(2-hydroxyphenyl)carbamoyl]pyridazin-1-ium-1-yl]ethanesulfonate]",0,20,30,30,20,10,10,0,50,
CC(C#N)NC(=O)c1cc[n+](CCC(=O)O)nc1 (stereo not drawn) [Compound A85],60,90,90,100,90,30,100,100,100,
CC#CCNC(=O)c1cc[n+](CCC(=O)O)nc1 [Compound A86],60,100,90,100,100,20,90,100,100,
CCNC(=O)c1cc[n+](CCP(=O)(OCC)OCC)nc1 [Compound A87],,,,,,,,,,pest or weed control at 500 g/ha (Lolium perenne (LOLPE); post-emergence): 10%; pest or weed control at 500 g/ha (Setaria faberi (SETFA); post-emergence): 60%; pest or weed control at 500 g/ha ([1]; post-emergence): 100%; pest or weed control at 500 g/ha ([2]; post-emergence): 40%; pest or weed control at 500 g/ha ([3]; post-emergence): 0%; pest or weed control at 500 g/ha ([4]; post-emergence): 30%; pest or weed control at 500 g/ha (Eleusine indica (ELEIN); post-emergence): 20%; pest or weed control at 500 g/ha ([5]; post-emergence): 100%; pest or weed control at 500 g/ha ([6]; post-emergence): 10%
CCNC(=O)c1cc[n+](CC(C)(C)C(=O)O)nc1 [Compound A88],60,100,100,90,90,90,100,100,80,
CCNC(=O)c1cc[n+](CC(=O)OC)nc1 [Compound A89],0,0,0,20,0,20,0,0,0,
N#CCNC(=O)c1cc[n+](CCC(=O)O)nc1 [Compound A90],70,100,90,100,100,80,100,100,100,
